Paper PMC8910920 (International Journal of Molecular Sciences, 2022)
Values joined by “and” are separate entries in the source; they are usually repeats but may differ in a detail not shown here. Equal values may be shown once.

Assays:
[1] = system: OXA-induced cold hypersensitivity in male mice; assay: Oxaliplatin-induced peripheral neuropathy, acetone drop test; format: in vivo, mouse
Experimental: For the OXA-induced peripheral neuropathy assay, OXA was […] injected on days 1, 3 and 5 to male mice, at a 6 mg/kg dose, to induce hypersensitivity to cold, as monitored by the acetone drop test (Figure 6).
For the experiments, 6–8 weeks C57 male mice (≈30g) (Harlam, Holland) were used. All experiments were approved by the Institutional Animal and Ethical Committee of the Universidad Miguel Hernandez and Comunidad Valencian ethical committees (2021/VSC/PEA/0089) where experiments were conducted and they were in accordance with the guidelines of the Economic European Community and the Committee for Research and Ethical Issues of the International Association for the Study of Pain. All parts of the study concerning animal care were performed under the control of veterinarians. Experiments were performed blinded for NTG and compound treatment.
Oxaliplatin (OXA, Tocris, Bristol, UK) was used to induce peripheral neuropathy and was dissolved in water with gentle warming as formerly described. OXA was intraperitoneally injected on days 1, 3 and 5 at a 6 mg/kg dose. […] Cold chemical sensitivity was assessed using the acetone drop test. […] Positive nociceptive responses (licking time in seconds) were recorded with a digital stopwatch during 20 s (cut-off). Acetone was applied twice in an interval of 5 min between each application and the mean was calculated.

serum proteins = assay: Protein binding; format: in vitro ADME, human
[2] = biological target: T1, native TRPM8 channels from rat DRG neurons (Rattus norvegicus, UniProt Q8R455); assay: Whole-cell voltage-clamp, menthol-activated currents in rat DRG neurons; format: cell-based
T1 construct: native TRPM8 channels from rat DRG neurons; endogenous in cells; host or cells: primary DRG neurons (L4-L6) from 6-8 weeks old Sprague-Dawley rats
Experimental: We also investigated the effect of RGM8-51 on native TRPM8 channels from rat DRG neurons. Whole-cell patch-clamp recordings from small size DRG neurons evidenced menthol (100 µM)-activated inward currents at a holding voltage of −80 mV (Figure 3A). As expected from results obtained in rTRPM8-expressing HEK293 cells, RGM8-51 (1 µM) inhibited menthol-activated currents.
Voltage-activated Na^+ and K^+ currents and TRPM8-mediated currents were recorded in DRG neurons isolated from 6-8 weeks old Sprague-Dawley rats, as previously described. Rats were sacrificed by cervical dislocation followed by decapitation and lumbar segments of the spinal column were removed and placed in a cold Ca^2+, Mg^2+-free Hank’s solution (Sigma-Aldrich, Madrid, Spain). The bone surrounding the spinal cord was removed and the right L4, L5 and L6 DRG were exposed and pulled out. After removing the roots, DRG were chopped in half and incubated for 30 min at 37°C in Dulbecco’s modified Eagle’s Medium-low glucose (DMEM; Sigma-Aldrich) containing 5 mg/mL collagenase XI (Sigma-Aldrich, Madrid, Spain), 100 U/mL penicillin (Sigma-Aldrich), and 0.1 mg/mL streptomycin (Sigma-Aldrich). Then, the cell suspension was washed with DMEM by centrifugation (300 G, 5 min at 4 °C), filtered through a 100 µm mesh to eliminate cell clumps and washed again by centrifugation. […]
Data were sampled at 10 kHz (EPC10 amplifier with PatchMaster 2.53 software, HEKA Electronics, Lambrecht, Germany) and low-pass filtered at 3 kHz for analysis (PatchMaster 2.53 and GraphPad Prism 6.0, Graphpad Software, San Diego, CA, USA). […] Cell capacitance was measured and used to estimate the current density (J, pA/pF).
Data analysis: For the whole-cell patch-clamp experiments, results are expressed as the percentage of remaining activation of the TRPM8 channel. This is calculated by normalizing the ratio (p2/p1) of testing conditions to the ratio (p2/p1) of the control condition. […]

T1 sequence (Q8R455 whole entry): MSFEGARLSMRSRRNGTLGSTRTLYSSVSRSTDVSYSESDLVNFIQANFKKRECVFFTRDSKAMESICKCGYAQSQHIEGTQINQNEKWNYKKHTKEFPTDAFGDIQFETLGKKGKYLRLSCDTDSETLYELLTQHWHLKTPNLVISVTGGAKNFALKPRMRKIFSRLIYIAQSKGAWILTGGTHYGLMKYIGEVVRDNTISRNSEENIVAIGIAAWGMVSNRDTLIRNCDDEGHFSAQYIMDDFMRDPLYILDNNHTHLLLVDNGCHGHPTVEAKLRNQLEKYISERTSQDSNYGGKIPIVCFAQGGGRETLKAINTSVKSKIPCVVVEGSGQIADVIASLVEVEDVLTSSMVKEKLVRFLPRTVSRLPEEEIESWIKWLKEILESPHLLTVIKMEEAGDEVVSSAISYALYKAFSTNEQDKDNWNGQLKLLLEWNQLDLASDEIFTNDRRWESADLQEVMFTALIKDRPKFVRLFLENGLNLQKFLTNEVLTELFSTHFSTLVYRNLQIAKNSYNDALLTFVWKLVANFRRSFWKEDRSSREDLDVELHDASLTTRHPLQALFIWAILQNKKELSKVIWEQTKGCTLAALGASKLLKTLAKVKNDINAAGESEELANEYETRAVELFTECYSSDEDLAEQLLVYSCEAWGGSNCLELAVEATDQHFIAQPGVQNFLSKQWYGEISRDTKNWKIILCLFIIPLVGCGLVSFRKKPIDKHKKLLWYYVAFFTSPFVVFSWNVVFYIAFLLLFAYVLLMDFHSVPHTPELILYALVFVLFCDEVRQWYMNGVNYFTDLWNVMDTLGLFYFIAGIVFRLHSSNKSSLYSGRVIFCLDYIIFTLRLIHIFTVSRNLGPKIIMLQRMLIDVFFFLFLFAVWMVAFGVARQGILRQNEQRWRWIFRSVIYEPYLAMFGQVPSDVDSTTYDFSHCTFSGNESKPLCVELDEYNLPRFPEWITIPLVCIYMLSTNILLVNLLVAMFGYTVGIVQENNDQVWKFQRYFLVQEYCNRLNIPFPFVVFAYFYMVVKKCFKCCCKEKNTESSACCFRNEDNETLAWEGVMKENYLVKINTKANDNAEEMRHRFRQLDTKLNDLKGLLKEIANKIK

C[C@@H]1C(=O)N(C[C@H](Cc2ccccc2)N(Cc2ccccc2)Cc2ccccc2)[C@]1(Cc1ccccc1)C(=O)OC(C)(C)C [RGM8-51, 4(S)-Benzyl-3S-methyl-4-(tert-butoxy)carbonyl-1-[(2′S-dibenzylamino-3′-phenyl)prop-1′-yl]-2-oxoazetidine]
OXA-induced cold hypersensitivity (cold-induced paw licking) ([1]; 0.1 µg i.pl., sustained activity from 15 to 30 min): still highly active | OXA-induced cold hypersensitivity (cold-induced paw licking) ([1]; 1 μg i.pl., significant at 15 min, peak effect from 30 to 60 min): attenuates the cold-induced paw licking in a significant manner | Binding to proteins (%) (serum proteins): 100% and 99–100% | peak current density of menthol-activated current after compound ([2]; 1 µM, menthol 100 µM, holding −80 mV): 0.51 ± 0.09 pA/pF | inhibition at 1 µM ([2]; DRG neuron, 1 µM, menthol 100 µM, holding −80 mV, n = 8 cells, read-out: Mean peak current inhibition of menthol-activated currents): 65 ± 4.67% | effect on baseline current at -80 mV ([2]; compound on its own): did not modify on its own the baseline current
